Test systems include LOX IMVI melanoma; SNB-75 CNS; KM12 colon; LXFL 529 NSCLC; HOP-18 NSCLC; SNB-78 CNS; XF 498 CNS; BT-549 breast; MDA-MB-231 breast; HS 578T breast.
What all share (test): NCI-60 cell line screen, 48 h

Several values for one entry are separate records, joined by “and”; a condition that tells them apart may be missing. Equal values may be shown once.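 Exposure lasted 48 hours, with cells grown in 96-well plates and compounds tested at five concentrations. GI50 is the concentration that inhibits growth by half. TGI: concentration producing complete growth inhibition.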

Our source for the TGI and GI50 values is PubChem BioAssay (NCI).

As for `O=C1C2C3C=C4c5ccccc5N(c5ccccc5)C4(C2C(=O)N1Cc1ccccc1)C1C(=O)N(Cc2ccccc2)C(=O)C31` (stereo not drawn), the TGI with LOX IMVI melanoma, in the experiment on SNB-75 CNS, in the experiment on KM12 colon, in the experiment with LXFL 529 NSCLC, with HOP-18 NSCLC and with SNB-78 CNS was over 100 µM throughout. Moreover, the TGI with XF 498 CNS is over 100 µM.

Take `CC1(C)C(=O)N(CCCCCCN2C(=O)C(C)(C)c3ccccc32)c2ccccc21`: the TGI in the experiment with LOX IMVI melanoma is 43.5 µM; in the experiment on SNB-75 CNS it was over 100 µM; in the experiment with KM12 colon, over 100 µM; in the experiment with LXFL 529 NSCLC, over 100 µM; with HOP-18 NSCLC, over 100 µM; in the experiment with SNB-78 CNS, over 100 µM. The compound also displayed a TGI with XF 498 CNS of 53.6 µM.

With `Cc1nc(N)sc1C(=O)/C=C\c1ccc2c(c1)OCO2`, the TGI in the experiment on LOX IMVI melanoma, with SNB-75 CNS, in the experiment with KM12 colon, with LXFL 529 NSCLC, in the experiment on HOP-18 NSCLC and in the experiment on SNB-78 CNS was over 100 µM in each case. Further, the TGI in the experiment with XF 498 CNS was over 100 µM.

As for `COC(=O)/C(=N\Nc1nnc(C)n1N)C(C#N)c1ccc(Cl)cc1` (stereo not drawn), the TGI in the experiment on LOX IMVI melanoma, in the experiment on SNB-75 CNS, in the experiment with KM12 colon, with LXFL 529 NSCLC, with HOP-18 NSCLC and with SNB-78 CNS was over 100 µM in each case. This compound returned a TGI in the experiment on XF 498 CNS of over 100 µM.

For `COc1cc2c(cc1OC)C(CC(=O)NN=C(C)C)NCC2` (stereo not drawn), the TGI in the experiment with LOX IMVI melanoma, in the experiment with SNB-75 CNS, with KM12 colon, with LXFL 529 NSCLC, with HOP-18 NSCLC and in the experiment with SNB-78 CNS was over 100 µM each time. Further, the TGI with XF 498 CNS is over 100 µM.

With `COC(=O)C1=C(C)N(NC(=O)OC(C)(C)C)C(=O)C1=P(c1ccccc1)(c1ccccc1)c1ccccc1`, the TGI with LOX IMVI melanoma, in the experiment with SNB-75 CNS, in the experiment on KM12 colon, in the experiment with LXFL 529 NSCLC, in the experiment on HOP-18 NSCLC and with SNB-78 CNS was over 100 µM each time. In addition, in the experiment on XF 498 CNS, the TGI is over 100 µM.

With `COc1cc2c(c(OC)c1OC)-c1ccc(OC)c(=O)cc1[C@@H](NC(=O)c1ccccc1)CC2`, the GI50 in the experiment with LOX IMVI melanoma is 0.0105 µM; with BT-549 breast, under 0.003 µM; in the experiment with HS 578T breast, under 0.003 µM. Further, the TGI is 30 µM and 53.4 µM in the experiment on LOX IMVI melanoma; 33.8 µM in the experiment on SNB-75 CNS; 1.14 µM with KM12 colon; 30 µM with BT-549 breast; 15.7 µM with MDA-MB-231 breast; over 100 µM with LXFL 529 NSCLC. Besides, the TGI was over 100 µM in the experiment on HOP-18 NSCLC, 38.7 µM in the experiment with SNB-78 CNS and 3.86 µM in the experiment on XF 498 CNS.

Turning to `CC1CC[C@]2(C(=O)O)CCC3(C)C(=CC(=O)C4[C@@]5(C)CCC(=O)C(C)(C)C5CC[C@]43C)[C@@H]2[C@H]1C` (stereo partly drawn), the TGI in the experiment with LOX IMVI melanoma was 42.8 µM; with SNB-75 CNS it was over 100 µM; with KM12 colon, 56.1 µM; with LXFL 529 NSCLC, over 100 µM; in the experiment with HOP-18 NSCLC, 94.6 µM; in the experiment on SNB-78 CNS, over 100 µM. This compound had a TGI in the experiment on XF 498 CNS of 29.5 µM.

As for `CC(=O)/C(C)=N/NC(=O)c1ccccc1O`, the GI50 in the experiment with LOX IMVI melanoma, in the experiment with SNB-75 CNS and in the experiment with KM12 colon was over 100 µM throughout. Further, the TGI is over 100 µM with LOX IMVI melanoma; over 100 µM with SNB-75 CNS; over 100 µM with KM12 colon; over 100 µM in the experiment on BT-549 breast; over 100 µM in the experiment with MDA-MB-231 breast; over 10 µM in the experiment with LXFL 529 NSCLC. The TGI with HS 578T breast is over 100 µM; with HOP-18 NSCLC, over 10 µM; with SNB-78 CNS it was over 10 µM; in the experiment with XF 498 CNS, over 10 µM.

As to `COc1cc(C=C2C(=O)NC(=O)NC2=O)cc(OC)c1OC`, the TGI with LOX IMVI melanoma, in the experiment on SNB-75 CNS, in the experiment on KM12 colon, in the experiment on LXFL 529 NSCLC, in the experiment with HOP-18 NSCLC and in the experiment on SNB-78 CNS was over 100 µM each time. The TGI with XF 498 CNS was over 100 µM.

With `O=C(Cc1ccccc1)NN1C(=O)C(Cl)C1c1cc(Br)ccc1O` (stereo not drawn), the TGI in the experiment on LOX IMVI melanoma was over 100 µM; in the experiment with SNB-75 CNS it was 34.4 µM; in the experiment on KM12 colon, over 100 µM; in the experiment with LXFL 529 NSCLC it was over 100 µM; with HOP-18 NSCLC it was over 100 µM; in the experiment with SNB-78 CNS, 91.8 µM. The TGI with XF 498 CNS is over 100 µM.

On to `COc1cccc2c1C(=O)c1c(O)c3c(c(O)c1C2=O)C[C@@](O)(C(C)=O)C[C@@H]3OC1OC(C)C(O)C(N)C1Br` (stereo partly drawn), for which the TGI with LOX IMVI melanoma was 0.153 µM and 0.164 µM; with KM12 colon it was 0.426 µM and 0.453 µM; in the experiment with BT-549 breast it was 0.913 µM; in the experiment on MDA-MB-231 breast, 1.72 µM; in the experiment on LXFL 529 NSCLC, 1.12 µM; in the experiment with HOP-18 NSCLC, 0.345 µM. For the same compound, the TGI is 3.09 µM in the experiment on SNB-78 CNS; 0.414 µM and 0.423 µM in the experiment with XF 498 CNS. Besides, the GI50 in the experiment with SNB-75 CNS was 0.151 µM; in the experiment with KM12 colon it was 0.0797 µM; with XF 498 CNS, 0.0766 µM.

For the compound `N#CCN1C(=O)c2cccc3cc([N+](=O)[O-])cc(c23)C1=O`, the TGI in the experiment on LOX IMVI melanoma is 66.8 µM; in the experiment with SNB-75 CNS, over 100 µM; in the experiment with KM12 colon, over 100 µM; in the experiment with LXFL 529 NSCLC, over 100 µM; in the experiment with HOP-18 NSCLC it was over 100 µM; with SNB-78 CNS it was over 100 µM. Also, the TGI in the experiment on XF 498 CNS is 68.3 µM.

For the compound `O=C1OC(c2ccccc2)=N/C1=C\c1cccc2ccccc12`, the TGI in the experiment with LOX IMVI melanoma, in the experiment on SNB-75 CNS, in the experiment on KM12 colon, with LXFL 529 NSCLC, in the experiment on HOP-18 NSCLC and in the experiment with SNB-78 CNS was over 100 µM each time. Besides, the TGI in the experiment with XF 498 CNS was over 100 µM.

With `O=C(O)C1OC(n2cc(F)c(=O)[nH]c2=O)CC1O` (stereo not drawn), the TGI with LOX IMVI melanoma, in the experiment with SNB-75 CNS, in the experiment on KM12 colon, with BT-549 breast, in the experiment on MDA-MB-231 breast and in the experiment with LXFL 529 NSCLC was over 100 µM in each case. Moreover, the TGI in the experiment on HS 578T breast, in the experiment on HOP-18 NSCLC, with SNB-78 CNS and with XF 498 CNS was over 100 µM throughout.
